Values joined by “and” are separate entries in the source; they are usually repeats but may differ in a detail not shown here. Equal entries are not always repeated.
Legend:
[1] = molecular target: T1, Peregrin (Homo sapiens) (UniProt P55201); conditions: Compound concentration 20.0 uM, Protein concentration 2.0 uM, Result type QC Liability
T1 sequence (whole entry): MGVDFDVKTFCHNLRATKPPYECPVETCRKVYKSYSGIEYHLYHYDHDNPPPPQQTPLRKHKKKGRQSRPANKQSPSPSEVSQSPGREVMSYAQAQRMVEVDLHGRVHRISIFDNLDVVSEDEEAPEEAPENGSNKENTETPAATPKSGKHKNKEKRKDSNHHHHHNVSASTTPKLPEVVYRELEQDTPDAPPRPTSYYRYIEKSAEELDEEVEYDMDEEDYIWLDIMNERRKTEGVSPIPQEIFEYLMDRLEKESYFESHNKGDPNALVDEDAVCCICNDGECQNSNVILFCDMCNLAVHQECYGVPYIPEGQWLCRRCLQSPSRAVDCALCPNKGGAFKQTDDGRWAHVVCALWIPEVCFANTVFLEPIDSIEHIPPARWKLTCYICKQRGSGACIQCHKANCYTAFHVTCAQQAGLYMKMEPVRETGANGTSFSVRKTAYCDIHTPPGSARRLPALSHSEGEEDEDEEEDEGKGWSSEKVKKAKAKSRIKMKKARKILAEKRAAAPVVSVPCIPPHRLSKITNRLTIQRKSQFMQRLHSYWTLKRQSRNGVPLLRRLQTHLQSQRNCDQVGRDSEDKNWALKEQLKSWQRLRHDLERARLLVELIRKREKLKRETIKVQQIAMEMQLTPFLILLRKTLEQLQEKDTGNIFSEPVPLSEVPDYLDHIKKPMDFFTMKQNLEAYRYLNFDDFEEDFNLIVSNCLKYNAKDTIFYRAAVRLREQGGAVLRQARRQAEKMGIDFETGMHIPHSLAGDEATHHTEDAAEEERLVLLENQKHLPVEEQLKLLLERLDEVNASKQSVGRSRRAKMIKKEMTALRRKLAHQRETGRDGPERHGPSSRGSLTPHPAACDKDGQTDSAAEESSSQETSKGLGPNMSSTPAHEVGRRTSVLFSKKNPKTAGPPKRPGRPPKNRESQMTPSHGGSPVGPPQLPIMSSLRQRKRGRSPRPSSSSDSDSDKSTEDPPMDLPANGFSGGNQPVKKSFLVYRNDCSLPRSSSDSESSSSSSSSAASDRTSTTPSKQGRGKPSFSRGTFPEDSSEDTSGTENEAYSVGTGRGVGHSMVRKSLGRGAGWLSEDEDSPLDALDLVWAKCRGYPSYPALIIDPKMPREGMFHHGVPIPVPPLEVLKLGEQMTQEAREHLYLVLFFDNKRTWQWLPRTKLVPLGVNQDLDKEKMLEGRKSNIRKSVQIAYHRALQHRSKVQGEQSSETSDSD

[2] = molecular target: Fibroblast growth factor receptor 3 (Homo sapiens) (UniProt P22607); conditions: Compound concentration 20.0 uM, Protein concentration 2.0 uM, Result type QC Liability
Sequence of Fibroblast growth factor receptor 3 (Homo sapiens) (P22607 23-806 limits assumed): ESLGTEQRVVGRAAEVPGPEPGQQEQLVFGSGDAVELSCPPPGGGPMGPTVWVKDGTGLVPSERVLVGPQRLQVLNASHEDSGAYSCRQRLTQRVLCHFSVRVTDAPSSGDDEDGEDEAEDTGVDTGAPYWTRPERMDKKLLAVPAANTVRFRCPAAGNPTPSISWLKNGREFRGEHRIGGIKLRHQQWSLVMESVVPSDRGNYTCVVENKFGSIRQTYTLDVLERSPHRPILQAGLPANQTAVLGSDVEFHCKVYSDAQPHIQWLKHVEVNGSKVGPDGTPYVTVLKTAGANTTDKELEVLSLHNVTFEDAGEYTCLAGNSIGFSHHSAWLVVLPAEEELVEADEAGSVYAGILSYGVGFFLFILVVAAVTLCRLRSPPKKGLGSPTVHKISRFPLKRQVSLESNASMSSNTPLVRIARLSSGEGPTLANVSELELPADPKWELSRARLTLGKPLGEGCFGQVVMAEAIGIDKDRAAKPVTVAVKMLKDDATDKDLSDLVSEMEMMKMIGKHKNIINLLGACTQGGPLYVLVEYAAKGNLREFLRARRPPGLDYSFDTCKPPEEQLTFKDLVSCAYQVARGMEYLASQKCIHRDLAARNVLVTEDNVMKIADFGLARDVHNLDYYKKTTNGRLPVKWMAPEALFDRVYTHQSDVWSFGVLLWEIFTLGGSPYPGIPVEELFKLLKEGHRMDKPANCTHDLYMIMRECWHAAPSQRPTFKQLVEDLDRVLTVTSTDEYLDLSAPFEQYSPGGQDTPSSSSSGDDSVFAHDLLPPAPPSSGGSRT
Description: Thermal Shift Assay. Domain: start/stop: P449-E759

| Compound | ΔTm [1] | ΔTm [2] |
| --- | --- | --- |
| CN(C(=O)c1cnn2cccnc12)c1cc2c(cc1N1CCOCC1)C(=O)N(C[C@@H](F)C(C)(C)O)C2 | -1.49 °C | 1.38 °C |
| Cc1c(N2CCNCC2)nc2ccc(Br)cc2c1C(=O)NC[C@H](CCC(=O)O)c1ccccc1Cl | -2.38 °C | 0.57 °C |
| O=C(O)CCCCCC[C@@H]1C(=O)NC(=O)N1CCC(O)C1CCCCC1 (some centres not stated) | -2.88 °C | 0.47 °C |
| Cc1cc(Cl)ccc1S(=O)(=O)NC[C@H]1C2CCC(CC2)[C@@H]1/C=C\CCCC(=O)O | -2.88 °C | 0.12 °C |
| CC(C)(O)CNC(=O)N1C(=O)N(c2cccc(C(F)(F)F)c2)C2=C(C(=O)CC2)[C@H]1c1ccc(C#N)cc1 | -1.94 °C | 0.72 °C |
| CN1C(=O)[C@@H](NC(=O)c2cc(Cc3ccccc3)on2)COc2ccccc21 | -1.87 °C | -2.65 °C |
| O=C(Nc1cccc(C(F)(F)F)c1)c1cccc(-n2cc(-c3ccco3)nn2)c1 | -8.11 °C | -0.75 °C |
| O=C(O)c1ccc2c(c1)nc(NCc1ccccc1)c1ncncc12 | -1.74 °C | 0.75 °C |
| CCN(C(=O)CO)[C@H]1CN(/C(=N\C#N)Nc2cccc(OC(F)F)c2)N=C1c1ccc(Cl)c(Cl)c1 | -1.11 °C | 0.47 °C |
| CCOC(=O)CS(=O)(=O)c1ccc([C@@H](CO)NC(=O)c2cc3c(Cl)c(Cl)c(C)cc3n2C)cc1 | -8.76 °C | 2.82 °C |
| c1ccc2c(c1)SCc1c-2[nH]c2ccccc12 | -9.42 °C | 0.81 °C |
| COc1c(NC(=O)c2cc3cccc(Oc4ccnc(C(=O)N5CCN(C)CC5)c4)c3n2C)cc(C(C)(C)C)cc1NS(C)(=O)=O | -2.38 °C | 1.12 °C |
| Cc1ncsc1-c1ccc(CNC(=O)[C@@H]2C[C@H](O)CN2C(=O)[C@@H](NC(=O)C2(F)CC2)C(C)(C)C)c(OCCOc2ccc(CN3CCN(c4cc(-c5ccccc5O)nnc4N)CC3)cc2)c1 (relative stereo) | 4.18 °C | -0.13 °C |
| Fc1ccc(-c2nc(-c3c(F)cccc3F)[nH]c2-c2ccncc2)cc1 | 0.63 °C | 2.21 °C |
| CC(C)(C[C@H]1CN(S(=O)(=O)c2cccc(C(F)(F)F)c2)c2cc(-c3cc(F)cc(OC(F)F)c3)ccc2O1)C(=O)O | -3.42 °C | -0.98 °C |
| COc1cccc(CNc2ccc(S(=O)(=O)Nc3nc4ccccc4s3)cc2)c1O | -0.69 °C | 1.44 °C |
| COc1cc(N[C@@H]2CCCC[C@]2(O)C(F)(F)F)ccc1F | -1.55 °C | 0.65 °C |
| O=C(O)CCCc1cc2cc(Cl)ccc2n1S(=O)(=O)c1ccc2ncsc2c1 | -1.78 °C | 0.8 °C |
| CCCCC[C@H](O)/C=C/[C@H]1[C@H](O)CC(=O)[C@@H]1CCCCCCC(=O)O | -2.24 °C | 0.41 °C |
| O=C(Nc1ccnc(NC(=O)C2CC2)c1)c1c(Cl)cccc1Cl | -1.28 °C | 3.21 °C |
| COc1cc(-c2cn(C)c(=O)c3cnccc23)c(OC)cc1CN(C)C | 0.44 °C | 0.84 °C |

| Compound | ΔTm [1] | ΔTm [2] |
| --- | --- | --- |
| CCN1C(=O)C(c2cccc(C(=O)O)c2)C(=O)N(c2ccccc2)c2cc(C(F)(F)F)ccc21 (configuration not stated) | -1.55 °C | 0.62 °C |
| CC1(C)Oc2ncnc(N)c2N=C1c1ccc([C@H]2CC[C@H](CC(=O)O)CC2)cc1 | -2.72 °C | 0.43 °C |
| CCN(C)C(=O)c1ccc2c(c1)NC(=O)/C2=C(\NC1CCN(C)CC1)c1ccccc1 | -1.76 °C | 0.47 °C |
| COc1cc(C(N)=O)nc(-c2cccc(C#C[C@]3(O)CCN(C)C3=O)c2)c1 | -1.73 °C | 0.48 °C |
| COC[C@@H](C)N[C@H]1CC[C@H](Nc2cc(-c3cccc(NCC4(C#N)CCOCC4)n3)c(Cl)cn2)CC1 | -1.02 °C | 0.39 °C |
| Cn1cc(C(=O)O)c2ccc(N3CCC(OCc4c(-c5c(Cl)cccc5Cl)noc4C4CC4)CC3)cc21 | -1.9 °C | 0.91 °C |
| CC(C)NC(=O)[C@H]1CCC[C@H]1Nc1nc(Nc2ccc(CN(C)C)cc2)ncc1Br | -1.84 °C | 7.35 °C |
| O=C(CCCN1CCC(O)(c2ccc(Cl)cc2)CC1)c1ccc(F)cc1 | -1.6 °C | 0.59 °C |
| CC(=O)c1c(C)c2cnc(Nc3ccc(N4CCN(CCCCNC(=O)COc5cccc6c5C(=O)N(C5CCC(=O)NC5=O)C6=O)CC4)cn3)nc2n(C2CCCC2)c1=O (configuration not stated) | -1.22 °C | 0.48 °C |
| C[C@@H](COCCC(=O)N1CCN(c2ncc(C(F)(F)F)cn2)CC1)Nc1cn[nH]c(=O)c1C(F)(F)F | -0.15 °C | 0.48 °C |
| N=C(N)NCCC[C@H](NC(=O)C(c1ccccc1)c1ccccc1)C(=O)NCc1ccc(CNC(N)=O)cc1 | -1.9 °C | 0.81 °C |
| CS(=O)(=O)NC(=O)CCC/C=C\C[C@H]1C(=O)C[C@@H](O)[C@@H]1/C=C/[C@@H](O)COc1ccccc1 | -1.73 °C | 0.49 °C |
| CNc1ncc2cc(-c3ccc(-c4ncccc4F)cc3Cl)c(=O)n(C[C@H]3OC[C@H](N)CO3)c2n1 | -1.11 °C | 2.03 °C |
| CC(=O)c1ccc2c(c1)/C(=C(/NC1CCN(C)CC1)c1ccc3c(c1)OCO3)C(=O)N2 | -1.44 °C | 0.39 °C |
| CC(=O)c1c(C)c2cnc(Nc3ccn(C)n3)nc2n(C2CCCC2)c1=O | -0.34 °C | -0.69 °C |
| CN1Cc2nccc(-c3cn(C)nc3-c3ccc(F)cc3)c2C1=O | -1.84 °C | 0.27 °C |
| Cc1ccc(C(=O)Nc2cc(N3CCN(C)CC3)cc(C(F)(F)F)c2)cc1-n1cc(-c2cnn(C)c2C)nn1 | -0.61 °C | 3.8 °C |
| CN(C)C(=O)Cn1cc(-c2ccc(-c3cncc4ccccc34)cc2)cn1 | -2.52 °C | 0.29 °C |
| CCn1c(-c2nonc2N)nc2cncc(C(=O)N3CC[C@H](N)C3)c21 | -1.78 °C | 0.35 °C |
| N#Cc1ccc(C#CC[C@@H](C#N)NC(=O)[C@H]2CCCCN2)cc1F | -2.24 °C | 0.88 °C |
| CN(C)C(=O)Cn1cc(-c2nc([C@@](C)(c3ccc(-c4cnc(N)nc4)cc3)C3CC3)no2)cn1 | -1.93 °C | 0.61 °C |

| Compound | ΔTm [1] | ΔTm [2] |
| --- | --- | --- |
| Cc1[nH]c2c(N3CCCCC3)c(-c3ccccc3)nn2c(=O)c1-c1ccc(O)cc1 | -2.87 °C | 0.67 °C |
| Cc1cc2c(-c3ccco3)cnc(N[C@H]3CCN(C)C[C@@H]3C(=O)NC3CCCCC3)c2[nH]c1=O | -1.73 °C | 1 °C |
| CN[C@@H](C)C(=O)N[C@H](C(=O)N1CCC[C@H]1c1nc(C(=O)c2ccc(F)cc2)cs1)C1CCCCC1 | -1.91 °C | 0.96 °C |
| COc1cc(-c2cn[nH]c2)ccc1C(=O)Nc1ccc2c(c1)CCNCC2 | 0.1 °C | 0.93 °C |
| O=c1[nH]c(CS[C@H]2CC[C@H](O)CC2)nc2cc(OCC3CC3)cc(F)c12 | -0.45 °C | 0.65 °C |
| CC(C)c1cnc(NC(=O)Cc2ccccc2)s1 | 0.11 °C | 0.87 °C |
| CCOC(=O)c1cc2cc(-c3cc(C(=O)NCc4ccc(C(=O)O)cc4)nn3C)ccc2[nH]1 | -3.42 °C | 0.83 °C |
| Clc1ccccc1C(c1ccccc1)(c1ccccc1)n1ccnc1 | -5.05 °C | 0.47 °C |
| CNC(=O)c1cc(C(=O)NC2CC2)cn(Cc2ccccc2)c1=O | -0.87 °C | 0.5 °C |
| COc1c(-c2cn(C3CCC(=O)NC3=O)nn2)csc1C(=O)N1CCCC1 (configuration not stated) | -1.52 °C | 0.59 °C |
| Cc1cc(SCc2sc(-c3ccc(C(F)(F)F)cc3)nc2C)ccc1OCC(=O)O | -1.59 °C | 1.04 °C |
| COc1cc(OC)cc(-c2cc3cnc(N)nc3nc2NC(=O)NC(C)(C)C)c1 | -0.52 °C and -0.82 °C | 5.05 °C and 9.51 °C |
| CN(C)C/C=C/C(=O)Nc1cc2c(Nc3ccc(F)c(Cl)c3)ncnc2cc1OC[C@@H]1CCCO1 | -0.41 °C | 1.49 °C |
| CN(C(=O)c1ccccc1)c1ccc2c(c1)[nH]/c(=N\C(=O)c1ccc(Br)s1)n2CCC(N)=O | -2.4 °C | 4.52 °C |
| Cn1ncc(NC(=O)c2nc(-c3c(F)cccc3F)sc2N)c1N1CC[C@@H](N)[C@H](F)CC1 | -0.66 °C | 0.81 °C |
| CN1C(=O)c2c(nn(Cc3ccc(-c4cccc(F)n4)cc3)c2Nc2ccccc2)N2C1=N[C@@H]1CCC[C@@H]12 | -3.07 °C | -0.44 °C |
| O=C(NC1CCNCC1)c1n[nH]cc1NC(=O)c1c(Cl)cccc1Cl | -1.28 °C | 0.78 °C |
| COc1ccc(COc2ccc(Cc3cnc(N)nc3N)cc2OC)cc1 | -1.34 °C | 0.48 °C |
| COCc1nc2cnc3cc(-c4c(C)noc4C)c(OC[C@H]4CCNC4)cc3c2n1[C@H](C)c1ccccc1 | -1.65 °C | 0.6 °C |
